Molecules are shown by their SMILES.

The target of this test is T1, hNav1.7 and the β1 subunit (Homo sapiens, UniProt Q15858).
T1 construct: expressed in transfected cells
T1 sequence (Q15858 whole entry): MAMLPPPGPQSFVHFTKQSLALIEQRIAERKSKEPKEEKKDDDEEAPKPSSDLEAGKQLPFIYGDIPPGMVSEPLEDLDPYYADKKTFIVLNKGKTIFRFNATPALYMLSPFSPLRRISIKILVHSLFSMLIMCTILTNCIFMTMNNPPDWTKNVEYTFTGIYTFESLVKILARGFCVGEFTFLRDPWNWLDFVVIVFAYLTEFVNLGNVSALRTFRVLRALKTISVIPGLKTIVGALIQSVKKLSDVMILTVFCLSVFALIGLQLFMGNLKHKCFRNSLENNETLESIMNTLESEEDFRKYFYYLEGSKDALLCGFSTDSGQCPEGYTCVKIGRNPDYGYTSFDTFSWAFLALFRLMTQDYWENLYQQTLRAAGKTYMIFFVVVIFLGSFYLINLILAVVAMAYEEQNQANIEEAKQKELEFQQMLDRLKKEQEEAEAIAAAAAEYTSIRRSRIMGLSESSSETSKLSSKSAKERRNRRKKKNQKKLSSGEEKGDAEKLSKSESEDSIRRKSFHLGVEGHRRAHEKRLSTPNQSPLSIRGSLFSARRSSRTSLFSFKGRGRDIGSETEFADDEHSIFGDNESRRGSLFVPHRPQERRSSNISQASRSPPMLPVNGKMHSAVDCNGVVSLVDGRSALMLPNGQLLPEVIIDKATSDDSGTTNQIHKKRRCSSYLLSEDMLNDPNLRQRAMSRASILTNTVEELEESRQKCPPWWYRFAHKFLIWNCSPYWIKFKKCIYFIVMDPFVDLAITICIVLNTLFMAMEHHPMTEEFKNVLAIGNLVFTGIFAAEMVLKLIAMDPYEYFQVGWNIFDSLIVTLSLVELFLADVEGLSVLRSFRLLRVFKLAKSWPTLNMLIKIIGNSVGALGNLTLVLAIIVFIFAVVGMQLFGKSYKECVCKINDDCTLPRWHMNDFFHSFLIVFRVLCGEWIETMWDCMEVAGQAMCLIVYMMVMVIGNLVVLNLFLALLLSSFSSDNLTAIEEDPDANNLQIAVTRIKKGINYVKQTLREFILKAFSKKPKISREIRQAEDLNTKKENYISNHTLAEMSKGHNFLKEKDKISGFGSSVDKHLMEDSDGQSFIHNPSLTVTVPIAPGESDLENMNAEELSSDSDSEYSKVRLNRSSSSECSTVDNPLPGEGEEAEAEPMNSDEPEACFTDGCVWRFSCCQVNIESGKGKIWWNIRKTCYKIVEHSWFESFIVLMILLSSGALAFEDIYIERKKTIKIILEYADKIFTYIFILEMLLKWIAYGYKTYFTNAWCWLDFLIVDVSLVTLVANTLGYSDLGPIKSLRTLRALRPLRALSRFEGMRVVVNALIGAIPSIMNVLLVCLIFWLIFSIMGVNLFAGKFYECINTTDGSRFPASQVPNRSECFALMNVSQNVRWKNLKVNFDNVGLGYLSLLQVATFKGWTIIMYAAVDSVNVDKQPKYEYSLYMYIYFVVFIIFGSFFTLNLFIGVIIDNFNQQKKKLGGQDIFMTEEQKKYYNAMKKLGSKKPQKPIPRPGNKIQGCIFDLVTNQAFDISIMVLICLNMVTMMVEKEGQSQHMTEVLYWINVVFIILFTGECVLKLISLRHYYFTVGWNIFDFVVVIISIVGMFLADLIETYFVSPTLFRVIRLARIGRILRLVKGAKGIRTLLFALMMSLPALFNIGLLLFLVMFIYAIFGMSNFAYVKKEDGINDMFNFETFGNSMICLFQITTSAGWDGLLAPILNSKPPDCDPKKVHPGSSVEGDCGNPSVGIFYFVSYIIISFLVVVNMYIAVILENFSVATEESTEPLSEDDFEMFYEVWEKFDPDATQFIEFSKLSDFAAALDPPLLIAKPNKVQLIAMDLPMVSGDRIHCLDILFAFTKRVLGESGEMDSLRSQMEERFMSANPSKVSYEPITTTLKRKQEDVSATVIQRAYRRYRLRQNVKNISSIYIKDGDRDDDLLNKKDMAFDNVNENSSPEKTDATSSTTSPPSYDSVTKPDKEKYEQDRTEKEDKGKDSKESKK
T1 sequence (Q07699 19-218 partner): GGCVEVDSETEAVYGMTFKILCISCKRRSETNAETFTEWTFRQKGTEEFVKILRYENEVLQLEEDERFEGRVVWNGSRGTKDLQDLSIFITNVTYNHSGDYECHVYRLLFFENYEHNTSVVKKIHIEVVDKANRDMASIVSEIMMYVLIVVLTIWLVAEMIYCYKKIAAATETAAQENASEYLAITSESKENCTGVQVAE
Nature of the test: Tritiated compound competitive binding to membranes from cells heterologously expressing hNav1.7 and the β1 subunit (LBA). Particulars: competition with 100 pM [3H]compound, 18 h, room temperature; IC50 by 4 parameter logistic model. The protocol:
Example 235 Tritiated Compound Binding to Membranes Isolated from Cells that Heterologously Express hNav1.7 and the β1 Subunit
Preparation of membranes containing recombinantly expressed sodium channels: Frozen recombinant cell pellets were thawed on ice and diluted to 4 times the cell pellet weight with ice cold 50 mM Tris HCl, pH 7.4 buffer. The cell suspensions were homogenized on ice using a motorized glass dounce homogeniser. Homogenates were further diluted 8.4 times with ice cold 50 mM Tris HCl, pH 7.4 buffer and then centrifuged at 200×g at 4° C. for 15 min. The supernatants were collected and centrifuged at 10000×g at 4° C. for 50 min. The pellets were then re-suspended in 100 mM NaCl, 20 mM Tris HCl, pH 7.4 buffer containing 1% v/v protease inhibitors (Calbiochem) and re-homogenized on ice. The homogenized membranes were then processed through a syringe equipped with a 26 gauge needle. Protein concentrations were determined by Bradford Assay and the membranes were stored at −80° C.
Radioligand Binding Studies:
Saturation experiments. A competitive NaV1.7 inhibitor having a methyl group was tritiated. Three tritiums were incorporated in place of methyl hydrogens to generate [^3H]compound. Binding of this radioligand was performed in 5 mL borosilicate glass test tubes at room temperature. Binding was initiated by adding membranes to increasing concentrations of [^3H]compound in 100 mM NaCl, 20 mM Tris HCl, pH 7.4 buffer containing 0.01% w/v bovine serum albumin (BSA) for 18 h. […] After 18 h, the reactants were filtered through GF/C glass fiber filters presoaked in 0.5% w/v polyethylene imine. […] [^3H]compound bound to filters was quantified by liquid scintillation counting.
Competitive Binding Experiments:
Binding reactions were performed in 96-well polypropylene plates at room temperature for 18 h. In 360 μL, membranes were incubated with 100 pM [^3H]compound and increasing concentrations of Test Compound. […] Reactions were transferred and filtered through 96-well glass fiber/C filter plates presoaked with 0.5% polyethylene imine. The filtered reactions were washed 5 times with 200 μL ice cold buffer containing 0.25% BSA. Bound radioactivity was determined by liquid scintillation counting.
Data Analysis: For saturation experiments, non-specific binding was subtracted from total binding to provide specific binding and these values were recalculated in terms of pmol ligand bound per mg protein. Saturation curves were constructed and dissociation constants were calculated using the single site ligand binding model: Beq=(Bmax*X)/(X+Kd), where Beq is the amount of ligand bound at equilibrium, Bmax is the maximum receptor density, Kd is the dissociation constant for the ligand, and X is the free ligand concentration. For competition studies percent inhibition was determined and IC50 values were calculated using a 4 parameter logistic model (% inhibition=(A+((B−A)/(1+((x/C)^D)))) using XLfit, where A and B are the maximal and minimum inhibition respectively, C is the IC50 concentration and D is the (Hill) slope.
With `CC[C@H]1CCCCN1[C@H](C)c1ccc(S(=O)(=O)Nc2ncns2)cc1Cl` (racemic) [Example 58, (±)-3-chloro-4-((R)-1-((S)-2-ethylpiperidin-1-yl)ethyl)-N-(1,2,4-thiadiazol-5-yl)benzenesulfonamide], the “Nav1.7 (LBA)” value was found to be 5.3 µM.
`O=S(=O)(Nc1ncns1)c1ccc2c(c1)CC[C@@H]2N1CCCC[C@H]1c1ccccc1` (racemic) [Example 67, 1-(2-phenylpiperidin-1-yl)-N-(1,2,4-thiadiazol-5-yl)-2,3-dihydro-1H-indene-5-sulfonamide]: the “Nav1.7 (LBA)” value turned out to be 0.157 µM.
The value for `O=S(=O)(Nc1ncns1)c1cc2c(cc1F)[C@@H](N1CCCC[C@@H]1c1ccc(F)cc1)CCO2` (racemic) [Example 86, (±)-(S)-6-fluoro-4-((R)-2-(4-fluorophenyl)piperidin-1-yl)-N-(1,2,4-thiadiazol-5-yl)chromane-7-sulfonamide] was 0.00496 µM.
As for `O=S(=O)(Nc1ncns1)c1cc2c(cc1F)[C@@H](N1CCCC[C@H]1c1ccc(F)cc1)CCO2` (racemic) [Example 87, (±)-(S)-6-fluoro-4-((S)-2-(4-fluorophenyl)piperidin-1-yl)-N-(1,2,4-thiadiazol-5-yl)chromane-7-sulfonamide], the figure is 0.00726 µM; as for `O=S(=O)(Nc1ncns1)c1cc2c(cc1F)C(N1CCC(C(F)(F)F)CC1c1ccc(F)cc1)CCO2` (racemic) [Example 88, 6-fluoro-4-(cis-2-(4-fluorophenyl)-4-(trifluoromethyl)piperidin-1-yl)-N-(1,2,4-thiadiazol-5-yl)chromane-7-sulfonamide], 0.00168 µM.
In the case of `O=S(=O)(Nc1nccs1)c1cc2c(cc1F)[C@H](N1CC[C@@H](C(F)(F)F)C[C@H]1c1ccc(F)cc1)CCO2` (racemic) [Example 93], the “Nav1.7 (LBA)” value is 0.00333 µM.
For the compound `O=S(=O)(Nc1ncccn1)c1cc2c(cc1F)C(N1CCC(C(F)(F)F)CC1c1ccc(F)cc1)CCO2` (racemic) [Example 96, (±)-(R)-6-fluoro-4-((cis)-2-(4-fluorophenyl)-4-(trifluoromethyl)piperidin-1-yl)-N-(pyrimidin-2-yl)chromane-7-sulfonamide], the “Nav1.7 (LBA)” value turned out to be 0.00994 µM.
As for `CC1(C)CCN(Cc2cc(F)c(S(=O)(=O)Nc3ncns3)cc2F)[C@H](c2ccccc2)C1` (single isomer, unassigned) [Example 2], the figure is 0.288 µM.
As for `CC1(C)CCN(Cc2cc(F)c(S(=O)(=O)Nc3ncns3)cc2F)[C@@H](c2ccccc2)C1` (single isomer, unassigned) [Example 3], the “Nav1.7 (LBA)” value worked out at 9.28 µM.
In the case of `C[C@@H]1CCN(Cc2cc(F)c(S(=O)(=O)Nc3ncns3)cc2F)[C@H](c2ccccc2)C1` (single isomer, unassigned) [Example 6], the “Nav1.7 (LBA)” value came out at 0.17 µM.
As for `C[C@H]1CCN(Cc2cc(F)c(S(=O)(=O)Nc3ncns3)cc2F)[C@@H](c2ccccc2)C1` (single isomer, unassigned) [Example 7], the figure is 4.23 µM; as for `O=S(=O)(Nc1ncns1)c1cc(F)c(CN2CCCC[C@H]2c2ccnnc2)cc1F` (single isomer, unassigned) [Example 11], 1.26 µM.
In the case of `Nc1cc([C@@H]2CCCCN2Cc2cc(F)c(S(=O)(=O)Nc3ncns3)cc2F)ccn1` (single isomer, unassigned) [Example 13], the “Nav1.7 (LBA)” value was 0.158 µM.
With `Cn1nccc1[C@H]1CCCCN1Cc1cc(F)c(S(=O)(=O)Nc2ncns2)cc1F` (single isomer, unassigned) [Example 14], the “Nav1.7 (LBA)” value amounted to 0.22 µM.
The value for `Cn1nccc1[C@@H]1CCCCN1Cc1cc(F)c(S(=O)(=O)Nc2ncns2)cc1F` (single isomer, unassigned) [Example 15] was 9.36 µM.
For the compound `C[C@H](c1cc(F)c(S(=O)(=O)Nc2ncns2)cc1F)N1CCCC[C@@H]1c1ccccc1` (single isomer, unassigned) [Example 16], the “Nav1.7 (LBA)” value worked out at 3.65 µM.
For `C[C@H](c1cc(F)c(S(=O)(=O)Nc2ncns2)cc1F)N1CCCC[C@H]1c1ccccc1` (single isomer, unassigned) [Example 18], the “Nav1.7 (LBA)” value was 1.38 µM.
Consider `C[C@@H]1CC[C@H](c2ccccc2)N(Cc2cc(F)c(S(=O)(=O)Nc3ncns3)cc2F)C1` (single isomer, unassigned) [Example 20], for which the “Nav1.7 (LBA)” value was 1.56 µM.
As to `C[C@H]1CC[C@@H](c2ccccc2)N(Cc2cc(F)c(S(=O)(=O)Nc3ncns3)cc2F)C1` (single isomer, unassigned) [Example 21], the “Nav1.7 (LBA)” value worked out at 0.672 µM.
On to `C[C@H]1CCCN(Cc2cc(F)c(S(=O)(=O)Nc3ncns3)cc2F)[C@H]1c1ccccc1` (single isomer, unassigned) [Example 22], for which the “Nav1.7 (LBA)” value came out at 1.55 µM.
On to `C[C@@H]1CCCN(Cc2cc(F)c(S(=O)(=O)Nc3ncns3)cc2F)[C@@H]1c1ccccc1` (single isomer, unassigned) [Example 23], for which the “Nav1.7 (LBA)” value stood at 0.366 µM.
In the case of `O=S(=O)(Nc1ncns1)c1cc(F)c(CN2CCCC[C@H]2c2cn[nH]c2)cc1F` (single isomer, unassigned) [Example 25], the “Nav1.7 (LBA)” value was found to be 2.24 µM.
For the compound `O=S(=O)(Nc1ncns1)c1cc(F)c(CN2CCCC[C@H]2c2ccn[nH]2)cc1F` (single isomer, unassigned) [Example 27], the “Nav1.7 (LBA)” value is 0.118 µM.
As to `O=S(=O)(Nc1ncns1)c1cc(F)c(CN2CC[C@@H](F)C[C@H]2c2ccccc2)cc1F` (single isomer, unassigned) [Example 28], the “Nav1.7 (LBA)” value was found to be 5.98 µM.
As to `O=S(=O)(Nc1ncns1)c1cc(F)c(CN2CC[C@H](F)C[C@@H]2c2ccccc2)cc1F` (single isomer, unassigned) [Example 29], the “Nav1.7 (LBA)” value worked out at 0.157 µM.
`O=S(=O)(Nc1ncns1)c1cc(F)c(CN2CC[C@@H](F)C[C@@H]2c2ccccc2)cc1F` (single isomer, unassigned) [Example 30]: the “Nav1.7 (LBA)” value was found to be 1.71 µM.
Take `O=S(=O)(Nc1ncns1)c1cc(F)c(CN2CC[C@H](F)C[C@H]2c2ccccc2)cc1F` (single isomer, unassigned) [Example 31]: the “Nav1.7 (LBA)” value is 0.374 µM.
The value for `O=S(=O)(Nc1ncns1)c1cc(F)c(CN2CCC(F)(F)C[C@H]2c2ccccc2)cc1F` (single isomer, unassigned) [Example 32] was 0.18 µM; that for `O=S(=O)(Nc1ncns1)c1cc(F)c(CN2CCC(F)(F)C[C@@H]2c2ccccc2)cc1F` (single isomer, unassigned) [Example 33] was 4.16 µM; that for `O=S(=O)(Nc1ncns1)c1cc(F)c(CN2CC[C@H](OC(F)(F)F)C[C@@H]2c2ccccc2)cc1F` (single isomer, unassigned) [Example 35] was 0.0786 µM.
Regarding `O=S(=O)(Nc1ncns1)c1cc(F)c(CN2CC[C@H](OC(F)(F)F)C[C@H]2c2ccccc2)cc1F` (single isomer, unassigned) [Example 36], the “Nav1.7 (LBA)” value stood at 0.538 µM.
As to `O=S(=O)(Nc1ncns1)c1ccc2c(c1)OCC[C@@H]2N1CCCC[C@H]1c1ccccc1` (single isomer, unassigned) [Example 37], the “Nav1.7 (LBA)” value is 0.0254 µM.
For the compound `O=S(=O)(Nc1ncns1)c1ccc2c(c1)OCC[C@H]2N1CCCC[C@H]1c1ccccc1` (single isomer, unassigned) [Example 38], the “Nav1.7 (LBA)” value was 0.203 µM.
In the case of `O=S(=O)(Nc1ncns1)c1ccc2c(c1)OCC[C@@H]2N1CCC[C@H]1c1ccccc1` (single isomer, unassigned) [Example 39], the “Nav1.7 (LBA)” value amounted to 0.274 µM.
For `O=S(=O)(Nc1ncns1)c1ccc2c(c1)OCC[C@H]2N1CCC[C@H]1c1ccccc1` (single isomer, unassigned) [Example 40], the “Nav1.7 (LBA)” value turned out to be 0.798 µM.
Take `O=S(=O)(Nc1ncns1)c1ccc2c(c1)CCC[C@@H]2N1CCCC[C@@H]1c1ccccc1` (single isomer, unassigned) [Example 51]: the “Nav1.7 (LBA)” value came to 0.482 µM.
Consider `O=S(=O)(Nc1ncns1)c1ccc2c(c1)CCC[C@@H]2N1CCCC[C@H]1c1ccccc1` (single isomer, unassigned) [Example 52], for which the “Nav1.7 (LBA)” value was determined as 0.269 µM.

The values are drawn from patent publication US10787446B2 (GENENTECH, INC., priority 2015, dated 2020).
